Assay results as given in PubChem BioAssay (NCI).
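Each compound was tested at five concentrations against cells in 96-well plates for 48 hours. TGI marks complete inhibition of growth.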

What was measured:
Assay in all cases: inhibition of tumour cell growth, NCI panel, 48 h
DMS 114 small cell lung = tested on: DMS 114 small cell lung
IGROV1 ovarian = tested on: IGROV1 ovarian
KM12 colon = tested on: KM12 colon
LOX IMVI melanoma = tested on: LOX IMVI melanoma
SW-620 colon = tested on: SW-620 colon
NCI-H460 lung = tested on: NCI-H460 lung
CAKI-1 renal = tested on: CAKI-1 renal
786-0 renal = tested on: 786-0 renal
RXF 393 renal = tested on: RXF 393 renal
DMS 273 small cell lung = tested on: DMS 273 small cell lung
SR leukemia = tested on: SR leukemia
NCI-H23 lung = tested on: NCI-H23 lung
K-562 leukemia = tested on: K-562 leukemia
TK-10 renal = tested on: TK-10 renal
NCI-H226 lung = tested on: NCI-H226 lung
OVCAR-8 ovarian = tested on: OVCAR-8 ovarian
OVCAR-4 ovarian = tested on: OVCAR-4 ovarian
OVCAR-3 ovarian = tested on: OVCAR-3 ovarian
SNB-19 CNS = tested on: SNB-19 CNS
SF-295 CNS = tested on: SF-295 CNS
U251 CNS = tested on: U251 CNS
UACC-257 melanoma = tested on: UACC-257 melanoma
UO-31 renal = tested on: UO-31 renal
RPMI-8226 leukemia = tested on: RPMI-8226 leukemia
SF-268 CNS = tested on: SF-268 CNS
SF-539 CNS = tested on: SF-539 CNS
HT29 colon = tested on: HT29 colon
NCI-H522 lung = tested on: NCI-H522 lung
XF 498 CNS = tested on: XF 498 CNS
KM20L2 colon = tested on: KM20L2 colon
SK-MEL-2 melanoma = tested on: SK-MEL-2 melanoma
MALME-3M melanoma = tested on: MALME-3M melanoma
SNB-75 CNS = tested on: SNB-75 CNS
OVCAR-5 ovarian = tested on: OVCAR-5 ovarian
COLO 205 colon = tested on: COLO 205 colon
LXFL 529 NSCLC = tested on: LXFL 529 NSCLC
HCT-15 colon = tested on: HCT-15 colon
SK-MEL-28 melanoma = tested on: SK-MEL-28 melanoma
HOP-92 NSCLC = tested on: HOP-92 NSCLC
SN12C renal = tested on: SN12C renal
HCC-2998 colon = tested on: HCC-2998 colon
SK-OV-3 ovarian = tested on: SK-OV-3 ovarian
M19-MEL melanoma = tested on: M19-MEL melanoma
DLD-1 colon = tested on: DLD-1 colon
A549 NSCLC = tested on: A549 NSCLC
MOLT-4 leukemia = tested on: MOLT-4 leukemia
ACHN renal = tested on: ACHN renal
HL-60(TB) leukemia = tested on: HL-60(TB) leukemia
M14 melanoma = tested on: M14 melanoma
CCRF-CEM leukemia = tested on: CCRF-CEM leukemia
EKVX NSCLC = tested on: EKVX NSCLC
HOP-62 NSCLC = tested on: HOP-62 NSCLC
HOP-18 NSCLC = tested on: HOP-18 NSCLC
SNB-78 CNS = tested on: SNB-78 CNS
A498 renal = tested on: A498 renal
HCT-116 colon = tested on: HCT-116 colon
UACC-62 melanoma = tested on: UACC-62 melanoma

O=C(O)C(CS)Nc1c2ccccc2nc2ccccc12 (configuration not stated)
TGI (DMS 114 small cell lung): > 100 µM | TGI (IGROV1 ovarian): > 100 µM | TGI (KM12 colon): > 100 µM | TGI (LOX IMVI melanoma): > 100 µM | TGI (SW-620 colon): > 100 µM | TGI (NCI-H460 lung): > 100 µM | TGI (CAKI-1 renal): > 100 µM | TGI (786-0 renal): > 100 µM | TGI (RXF 393 renal): > 100 µM | TGI (DMS 273 small cell lung): > 100 µM | TGI (SR leukemia): > 100 µM | TGI (NCI-H23 lung): > 100 µM | TGI (K-562 leukemia): > 100 µM | TGI (TK-10 renal): > 100 µM | TGI (NCI-H226 lung): > 100 µM | TGI (OVCAR-8 ovarian): > 100 µM | TGI (OVCAR-4 ovarian): 47.1 µM | TGI (OVCAR-3 ovarian): > 100 µM | TGI (SNB-19 CNS): > 100 µM | TGI (SF-295 CNS): > 100 µM | TGI (U251 CNS): > 100 µM | TGI (UACC-257 melanoma): > 100 µM | TGI (UO-31 renal): 98 µM | TGI (RPMI-8226 leukemia): > 100 µM | TGI (SF-268 CNS): > 100 µM | TGI (SF-539 CNS): > 100 µM | TGI (HT29 colon): > 100 µM | TGI (NCI-H522 lung): > 100 µM | TGI (XF 498 CNS): > 100 µM | TGI (KM20L2 colon): > 100 µM | TGI (SK-MEL-2 melanoma): > 100 µM | TGI (MALME-3M melanoma): > 100 µM | TGI (SNB-75 CNS): > 100 µM | TGI (OVCAR-5 ovarian): > 100 µM | TGI (COLO 205 colon): > 100 µM | TGI (LXFL 529 NSCLC): > 100 µM | TGI (HCT-15 colon): > 100 µM | TGI (SK-MEL-28 melanoma): > 100 µM | TGI (HOP-92 NSCLC): > 100 µM | TGI (SN12C renal): > 100 µM | TGI (HCC-2998 colon): > 100 µM | TGI (SK-OV-3 ovarian): > 100 µM | TGI (M19-MEL melanoma): > 100 µM | TGI (DLD-1 colon): > 100 µM | TGI (A549 NSCLC): > 100 µM | TGI (MOLT-4 leukemia): > 100 µM | TGI (ACHN renal): > 100 µM | TGI (HL-60(TB) leukemia): > 100 µM | TGI (M14 melanoma): > 100 µM | TGI (CCRF-CEM leukemia): > 100 µM | TGI (EKVX NSCLC): > 100 µM

O=C(CCc1cc(-c2ccccc2)nc(=S)[nH]1)N(Cc1ccccc1)Cc1ccccc1
TGI (DMS 114 small cell lung): > 100 µM | TGI (IGROV1 ovarian): > 100 µM | TGI (KM12 colon): > 100 µM | TGI (LOX IMVI melanoma): > 100 µM | TGI (SW-620 colon): > 100 µM | TGI (NCI-H460 lung): > 100 µM | TGI (CAKI-1 renal): > 100 µM | TGI (786-0 renal): > 100 µM | TGI (HOP-62 NSCLC): > 100 µM | TGI (DMS 273 small cell lung): > 100 µM | TGI (HOP-18 NSCLC): > 100 µM | TGI (NCI-H23 lung): > 100 µM | TGI (K-562 leukemia): > 100 µM | TGI (TK-10 renal): > 100 µM | TGI (NCI-H226 lung): > 100 µM | TGI (OVCAR-8 ovarian): > 100 µM | TGI (OVCAR-4 ovarian): > 100 µM | TGI (OVCAR-3 ovarian): > 100 µM | TGI (SNB-19 CNS): > 100 µM | TGI (SF-295 CNS): > 100 µM | TGI (U251 CNS): > 100 µM | TGI (UACC-257 melanoma): > 100 µM | TGI (UO-31 renal): > 100 µM | TGI (RPMI-8226 leukemia): > 100 µM | TGI (SF-268 CNS): > 100 µM | TGI (SF-539 CNS): > 100 µM | TGI (SNB-78 CNS): > 100 µM | TGI (HT29 colon): > 100 µM | TGI (NCI-H522 lung): > 100 µM | TGI (XF 498 CNS): > 100 µM | TGI (KM20L2 colon): > 100 µM | TGI (SK-MEL-2 melanoma): > 100 µM | TGI (A498 renal): > 100 µM | TGI (MALME-3M melanoma): > 100 µM | TGI (OVCAR-5 ovarian): > 100 µM | TGI (COLO 205 colon): > 100 µM | TGI (HCT-116 colon): > 100 µM | TGI (LXFL 529 NSCLC): > 100 µM | TGI (HCT-15 colon): > 100 µM | TGI (HOP-92 NSCLC): > 100 µM | TGI (SN12C renal): > 100 µM | TGI (UACC-62 melanoma): > 100 µM | TGI (HCC-2998 colon): > 100 µM | TGI (SK-OV-3 ovarian): > 100 µM | TGI (M19-MEL melanoma): > 100 µM | TGI (DLD-1 colon): > 100 µM | TGI (A549 NSCLC): > 100 µM | TGI (MOLT-4 leukemia): > 100 µM | TGI (ACHN renal): > 100 µM | TGI (HL-60(TB) leukemia): > 100 µM | TGI (M14 melanoma): > 100 µM | TGI (CCRF-CEM leukemia): > 100 µM | TGI (EKVX NSCLC): > 100 µM

O=C(NC12CC3CC(CC(F)(C3)C1)C2)c1ccccc1
TGI (DMS 114 small cell lung): > 100 µM | TGI (IGROV1 ovarian): > 100 µM | TGI (KM12 colon): > 100 µM | TGI (LOX IMVI melanoma): > 100 µM | TGI (SW-620 colon): > 100 µM | TGI (NCI-H460 lung): > 100 µM | TGI (786-0 renal): > 100 µM | TGI (HOP-62 NSCLC): > 100 µM | TGI (RXF 393 renal): > 100 µM | TGI (DMS 273 small cell lung): > 100 µM | TGI (NCI-H23 lung): > 100 µM | TGI (K-562 leukemia): > 100 µM | TGI (TK-10 renal): > 100 µM | TGI (OVCAR-8 ovarian): > 100 µM | TGI (OVCAR-3 ovarian): > 100 µM | TGI (SNB-19 CNS): > 100 µM | TGI (U251 CNS): > 100 µM | TGI (UACC-257 melanoma): > 100 µM | TGI (UO-31 renal): > 100 µM | TGI (RPMI-8226 leukemia): > 100 µM | TGI (SF-539 CNS): > 100 µM | TGI (SNB-78 CNS): > 100 µM | TGI (HT29 colon): > 100 µM | TGI (NCI-H522 lung): > 100 µM | TGI (XF 498 CNS): > 100 µM | TGI (KM20L2 colon): > 100 µM | TGI (SK-MEL-2 melanoma): > 100 µM | TGI (A498 renal): > 100 µM | TGI (MALME-3M melanoma): > 100 µM | TGI (SNB-75 CNS): > 100 µM | TGI (OVCAR-5 ovarian): > 100 µM | TGI (COLO 205 colon): > 100 µM | TGI (HCT-116 colon): > 100 µM | TGI (LXFL 529 NSCLC): > 100 µM | TGI (SK-MEL-28 melanoma): > 100 µM | TGI (HOP-92 NSCLC): > 100 µM | TGI (UACC-62 melanoma): > 100 µM | TGI (HCC-2998 colon): > 100 µM | TGI (SK-OV-3 ovarian): > 100 µM | TGI (M19-MEL melanoma): > 100 µM | TGI (DLD-1 colon): > 100 µM | TGI (A549 NSCLC): > 100 µM | TGI (MOLT-4 leukemia): > 100 µM | TGI (ACHN renal): > 100 µM | TGI (HL-60(TB) leukemia): > 100 µM | TGI (M14 melanoma): > 100 µM | TGI (CCRF-CEM leukemia): > 100 µM | TGI (EKVX NSCLC): > 100 µM
